Literature values as cited in patent US11406678B2, “Simmondsin formulation” (priority 2016, dated 2022).

Conditions: rats, 25 mg or 50 mg simmondsin per kg body weight

Question: With `CO[C@H]1[C@@H](OC)C[C@@H](O[C@@H]2O[C@H](CO)[C@@H](O)[C@H](O)[C@H]2O)/C(=C\C#N)[C@@H]1O` [simmondsin] as the molecule, how does the weight loss read?
Answer: no effect on the weight loss
